Experimental data published in ChEMBL document CHEMBL5500343, “Activity refinement of aryl amino acetamides that target the P. falciparum STAR-related lipid transfer 1 protein” (Eur J Med Chem, 2024).
Converted amounts (≈) assume the structure as drawn.

Legend:
HepG2 = test: Cytotoxicity against human HepG2 cells assessed as reduction in cell viability incubated for 48 hrs by Cell Titer-Glo assay; assay type: functional, cell-based; conditions: HepG2, 48 h
Plasmodium falciparum [1] = test: Antimalarial activity against asexual blood stage Plasmodium falciparum 3D7 assessed as reduction in parasite growth incubated for 72 hrs by LDH assay; assay type: functional, organism-based; conditions: 3D7, 72 h
Plasmodium falciparum [2] = test: Binding affinity to recombinant Plasmodium falciparum START1 assessed as change in entropy at 10 uM by isothermal titration calorimetry
Plasmodium falciparum [3] = test: Binding affinity to recombinant Plasmodium falciparum START1 assessed as change in enthalpy at 10 uM by isothermal titration calorimetry
Plasmodium falciparum [4] = test: Antimalarial activity against MMV006833 resistant Plasmodium falciparum 3D7 assessed as reduction in parasite growth incubated for 72 hrs by LDH assay; assay type: functional, organism-based; conditions: 3D7, 72 h
Plasmodium falciparum [5] = test: Antimalarial activity against MMV006833 resistant Plasmodium falciparum 3D7 harboring START1 N330K mutant assessed as reduction in parasite growth incubated for 72 hrs by LDH assay; assay type: functional, organism-based; conditions: 3D7, 72 h
[6] = Binding affinity to recombinant Plasmodium falciparum START1 assessed as dissociation constant by isothermal titration calorimetry
Plasmodium falciparum [7] = test: Antimalarial activity against MMV006833 resistant Plasmodium falciparum 3D7 harboring START1 N309K mutant assessed as reduction in parasite growth incubated for 72 hrs by LDH assay; assay type: functional, organism-based; conditions: 3D7, 72 h
[8] = Intrinsic clearance in rat hepatocyte measured per 10^6 cells at 1 uM incubated upto 90 mins by LC-MS/MS analysis; assay type: ADME, cell-based; conditions: rat hepatocytes, read-out: CLH
[9] = Kinetic aqueous solubility of the compound in PBS at pH 7.4 incubated for 2 hr under shaking condition by shake flask based UV reader plate analysis; assay type: physicochemical; conditions: read-out: Kinetic_solubility
[10] = Intrinsic clearance in human liver microsomes at 1 uM incubated upto 60 mins in presence of NADPH by LC-MS/MS analysis; assay type: ADME, Microsome; conditions: read-out: CLH
[11] = Lipophilicity, LogD of compound in 1-Octanol and PBS at pH 7.4 at 7.5 uM incubated for 2 hrs shake flask method based LC-MS/MS analysis; assay type: physicochemical; conditions: 1-octanol/PBS
Plasmodium falciparum [12] = test: Antimalarial activity against Plasmodium falciparum Dd2 assessed as reduction in parasite growth incubated for 72 hrs by [3H]-hypoxanthine incorporation assay; assay type: functional, organism-based
Plasmodium falciparum [13] = test: Antimalarial activity against MMV-048 resistant Plasmodium falciparum Dd2 harboring PI4K S743T mutant assessed as reduction in parasite growth incubated for 72 hrs by [3H]-hypoxanthine incorporation assay; assay type: functional, organism-based
Plasmodium falciparum [14] = test: Antimalarial activity against chloroquine and mefloquine resistant Plasmodium falciparum 7G8 assessed as reduction in parasite growth incubated for 72 hrs by [3H]-hypoxanthine incorporation assay; assay type: functional, organism-based
Plasmodium falciparum [15] = test: Antimalarial activity against KAF-156 resistant Plasmodium falciparum Dd2 harboring CARL I1139K mutant assessed as reduction in parasite growth incubated for 72 hrs by [3H]-hypoxanthine incorporation assay; assay type: functional, organism-based
Plasmodium falciparum [16] = test: Antimalarial activity against chloroquine and mefloquine resistant Plasmodium falciparum K1 assessed as reduction in parasite growth incubated for 72 hrs by [3H]-hypoxanthine incorporation assay; assay type: functional, organism-based
Plasmodium falciparum [17] = test: Antimalarial activity against chloroquine and mefloquine resistant Plasmodium falciparum RF12 assessed as reduction in parasite growth incubated for 72 hrs by [3H]-hypoxanthine incorporation assay; assay type: functional, organism-based
Plasmodium falciparum [18] = test: Antimalarial activity against DSM-265 resistant Plasmodium falciparum Dd2 harboring DHODH C276F mutant assessed as reduction in parasite growth incubated for 72 hrs by [3H]-hypoxanthine incorporation assay; assay type: functional, organism-based
Plasmodium falciparum [19] = test: Antimalarial activity against ELQ-300 resistant Plasmodium falciparum Dd2 harboring Cyt b I22L mutant assessed as reduction in parasite growth incubated for 72 hrs by [3H]-hypoxanthine incorporation assay; assay type: functional, organism-based
Plasmodium falciparum [20] = test: Antimalarial activity against chloroquine and mefloquine resistant Plasmodium falciparum NF54 assessed as reduction in parasite growth incubated for 72 hrs by [3H]-hypoxanthine incorporation assay; assay type: functional, organism-based
Plasmodium falciparum [21] = test: Antimalarial activity against atovaquone resistant Plasmodium falciparum TM90-C2B assessed as reduction in parasite growth incubated for 72 hrs by [3H]-hypoxanthine incorporation assay; assay type: functional, organism-based
Plasmodium falciparum [22] = test: Antimalarial activity against DDD-107498 resistant Plasmodium falciparum Dd2 harboring eEF2 Y86N mutant assessed as reduction in parasite growth incubated for 72 hrs by [3H]-hypoxanthine incorporation assay; assay type: functional, organism-based

Row | Compound | EC50 (HepG2) | EC50 (Plasmodium falciparum [1]) | other results
1 | N#Cc1ccc(NCC(=O)Nc2ccc(F)c(Cl)c2)cc1S(=O)(=O)N1CCOCC1 | > 40 µM | 750 nM | –
2 | Cc1cc(Cl)c(S(=O)(=O)N2CCOCC2)cc1OCC(=O)Nc1ccc(F)c(Cl)c1 | > 40 µM | 300 nM | –
3 | O=C(CNc1ccc(Cl)c(S(=O)(=O)N2CCOCC2)c1)Nc1cc(Cl)ccn1 | > 40 µM | 2800 nM | –
4 | CCC(Nc1ccc(Cl)c(S(=O)(=O)N2CCOCC2)c1)C(=O)Nc1ccc(F)c(Cl)c1 (racemic) | 24.5 µM | 11 nM | –
5 | COc1ccc(NCC(=O)Nc2ccc(F)c(Cl)c2)cc1S(=O)(=O)N1CCOCC1 | > 40 µM | 430 nM | –
6 | C[C@@H](Nc1ccc(Cl)c(S(=O)(=O)N2CCOCC2)c1)C(=O)Nc1ccc(F)c(Cl)c1 | > 40 µM | 320 nM | -TdeltaS (Plasmodium falciparum [2]): 6.7 kcal/mol; deltaH (Plasmodium falciparum [3]): -16.1 kcal/mol; EC50 (Plasmodium falciparum [4]): 99 nM; EC50 (Plasmodium falciparum [5]): 4400 nM; Kd [6]: 138 nM; EC50 (Plasmodium falciparum [7]): 4300 nM
7 | Cc1cc(Cl)c(S(=O)(=O)N2CCCC2)cc1OCC(=O)NC1CCCCC1 | – | – | Kd [6]: 42 nM
8 | CN1CCN(S(=O)(=O)c2cc(NCC(=O)Nc3ccc(F)c(Cl)c3)ccc2Cl)CC1 | > 40 µM | > 10000 nM | –
9 | C[C@H](Nc1ccc(Cl)c(S(=O)(=O)N2CCOCC2)c1)C(=O)Nc1ccc(F)c(Cl)c1 | > 40 µM | 22 nM | hepatocyte CLint at 1 µM [8]: > 92 µL/min/1e6 cells; -TdeltaS (Plasmodium falciparum [2]): 7.8 kcal/mol; deltaH (Plasmodium falciparum [3]): -17.7 kcal/mol; solubility kinetic at 2 h [9]: 14 µM (≈ 6.67 µg/mL); EC50 (Plasmodium falciparum [4]): 3 nM; EC50 (Plasmodium falciparum [5]): 1700 nM; Kd [6]: 66 nM; microsomal CLint at 1 µM [10]: > 462 µL/min/mg; EC50 (Plasmodium falciparum [7]): 2100 nM; logD at 2 h, 7.5 µM [11]: 3.9
10 | O=C(CNc1ccc(Cl)c(S(=O)(=O)N2CCOCC2)c1)Nc1cccc(OC(F)(F)F)c1 | 19.8 µM | 5000 nM | –
11 | O=C(CNc1ccc(Cl)c(S(=O)(=O)N2CCC(Cc3ccccc3)CC2)c1)Nc1ccc(F)c(Cl)c1 | 14 µM | 270 nM | –
12 | CC(C)[C@H](Nc1ccc(Cl)c(S(=O)(=O)N2CCOCC2)c1)C(=O)Nc1ccc(F)c(Cl)c1 | 30.3 µM | 33 nM | EC50 (Plasmodium falciparum [4]): 5 nM; EC50 (Plasmodium falciparum [5]): 2100 nM; EC50 (Plasmodium falciparum [7]): 2400 nM
13 | O=C(COc1ccc(Cl)c(S(=O)(=O)N2CCOCC2)c1)Nc1ccc(F)c(Cl)c1 | > 40 µM | 810 nM | –
14 | CCC[C@H](Nc1ccc(Cl)c(S(=O)(=O)N2CCOCC2)c1)C(=O)Nc1ccc(F)c(Cl)c1 | 16.3 µM | 140 nM | –
15 | C[C@@H](Nc1ccc(Cl)c(S(=O)(=O)N2CCOCC2)c1)C(=O)Nc1cncc(Cl)c1 | > 40 µM | 1100 nM | –
16 | Cc1cc(Cl)c(S(=O)(=O)N2CCOCC2)cc1NCC(=O)Nc1ccc(F)c(Cl)c1 | > 40 µM | 130 nM | –
17 | Cc1cc(Cl)c(S(=O)(=O)N2CCOCC2)cc1OCC(=O)NC1CCCCC1 | > 40 µM | 1600 nM | –
18 | CS(=O)(=O)c1ccc(-c2cnc(N)c(-c3ccc(C(F)(F)F)nc3)c2)cc1 [MMV-048] | – | – | EC50 (Plasmodium falciparum [12]): 16 nM; EC50 (Plasmodium falciparum [13]): 120 nM
19 | O=C(CNc1ccc(F)c(S(=O)(=O)N2CCOCC2)c1)Nc1ccc(F)c(Cl)c1 | – | 400 nM | –
20 | O=C(CNc1ccc(Cl)c(S(=O)(=O)N2CCOCC2)c1)Nc1ccc(F)c(Cl)c1 | > 40 µM | 80 nM | EC50 (Plasmodium falciparum [12]): 54 nM; EC50 (Plasmodium falciparum [14]): 26 nM; hepatocyte CLint at 1 µM [8]: > 92 µL/min/1e6 cells; EC50 (Plasmodium falciparum [15]): 26 nM; EC50 (Plasmodium falciparum [16]): 48 nM; EC50 (Plasmodium falciparum [17]): 32 nM; EC50 (Plasmodium falciparum [13]): 28 nM; EC50 (Plasmodium falciparum [18]): 20 nM; solubility kinetic at 2 h [9]: 19 µM (≈ 8.78 µg/mL); EC50 (Plasmodium falciparum [19]): 24 nM; EC50 (Plasmodium falciparum [20]): 42 nM; microsomal CLint at 1 µM [10]: > 462 µL/min/mg; EC50 (Plasmodium falciparum [21]): 31 nM; EC50 (Plasmodium falciparum [22]): 28 nM; logD at 2 h, 7.5 µM [11]: 2.2
21 | O=C(Nc1ccc(F)c(Cl)c1)[C@@H]1CCCCN1c1ccc(Cl)c(S(=O)(=O)N2CCOCC2)c1 | 21 µM | 420 nM | –
22 | O=C(CNc1ccc(Cl)c(S(=O)(=O)N2CCOCC2)c1)Nc1ccnc(Cl)c1 | > 40 µM | 1100 nM | –
23 | O=C(Nc1ccc(F)c(Cl)c1)C(Cc1ccccc1)Nc1ccc(Cl)c(S(=O)(=O)N2CCOCC2)c1 (racemic) | 15.5 µM | 1400 nM | –
